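Growth conditions: 96-well plates. Treatment: test compound, 48 hours, 5 concentrations. Analysis: linear interpolation between bracketing concentrations; unreached endpoints set to highest concentration. GI50 is the concentration that inhibits growth by half. TGI: concentration producing complete growth inhibition.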
Tests used:
Assay in all cases: inhibition of tumour cell growth, NCI panel, 48 h
[1] = tested on: 786-0 renal
[2] = tested on: A498 renal
[3] = tested on: A549 NSCLC
[4] = tested on: ACHN renal
[5] = tested on: BT-549 breast
[6] = tested on: CAKI-1 renal
[7] = tested on: CCRF-CEM leukemia
[8] = tested on: COLO 205 colon
[9] = tested on: DU-145 prostate
[10] = tested on: EKVX NSCLC
[11] = tested on: HCC-2998 colon
[12] = tested on: HCT-116 colon
[13] = tested on: HCT-15 colon
[14] = tested on: HL-60(TB) leukemia
[15] = tested on: HOP-62 NSCLC
[16] = tested on: HOP-92 NSCLC
[17] = tested on: HS 578T breast
[18] = tested on: HT29 colon
[19] = tested on: IGROV1 ovarian
[20] = tested on: K-562 leukemia
[21] = tested on: KM12 colon
[22] = tested on: LOX IMVI melanoma
[23] = tested on: M14 melanoma
[24] = tested on: MALME-3M melanoma
[25] = tested on: MCF7 breast
[26] = tested on: MDA-MB-231 breast
[27] = tested on: MDA-MB-435
[28] = tested on: MOLT-4 leukemia
[29] = tested on: NCI-H226 lung

Structure (SMILES): O=C(Nc1ccc(I)cc1F)c1cc(F)ccc1O
- GI50 [1]: 2.19 µM
- TGI [1]: 6.67 µM
- GI50 [2]: 0.163 µM
- TGI [2]: 0.634 µM
- GI50 [3]: 2.24 µM
- TGI [3]: > 100 µM
- GI50 [4]: 0.466 µM
- TGI [4]: > 100 µM
- GI50 [5]: 0.301 µM
- TGI [5]: 1.05 µM
- GI50 [6]: 0.342 µM
- TGI [6]: 2.86 µM
- GI50 [7]: 1.85 µM
- TGI [7]: 12.4 µM
- GI50 [8]: 3.88 µM
- TGI [8]: 15.6 µM
- GI50 [9]: 0.655 µM
- TGI [9]: > 100 µM
- GI50 [10]: 1.4 µM
- TGI [10]: 9.01 µM
- GI50 [11]: 3.1 µM
- TGI [11]: 26.4 µM
- GI50 [12]: 0.352 µM
- TGI [12]: 1.46 µM
- GI50 [13]: 0.499 µM
- TGI [13]: > 27.1 µM
- GI50 [14]: 0.382 µM
- TGI [14]: 1.93 µM
- GI50 [15]: 1.77 µM
- TGI [15]: 6.46 µM
- GI50 [16]: 0.169 µM
- TGI [16]: 0.504 µM
- GI50 [17]: 0.44 µM
- TGI [17]: 5.29 µM
- GI50 [18]: 3.44 µM
- TGI [18]: > 100 µM
- GI50 [19]: 0.404 µM
- TGI [19]: > 100 µM
- GI50 [20]: 0.407 µM
- TGI [20]: > 42.1 µM
- GI50 [21]: 2.21 µM
- TGI [21]: 6.23 µM
- GI50 [22]: 0.418 µM
- TGI [22]: 3.91 µM
- GI50 [23]: 0.407 µM
- TGI [23]: 3.26 µM
- GI50 [24]: 0.315 µM
- TGI [24]: 1.53 µM
- GI50 [25]: 1.48 µM
- TGI [25]: > 25.3 µM
- GI50 [26]: 0.513 µM
- TGI [26]: 4.69 µM
- GI50 [27]: 0.512 µM
- TGI [27]: 4.45 µM
- GI50 [28]: 0.611 µM
- TGI [28]: 2.59 µM
- GI50 [29]: 0.985 µM
